Target: T1, HiPIP (Thermochromatium tepidum, UniProt P80176)
T1 construct: gene hip; native, purified from cells by DEAE chromatography in the reduced state; co-crystallised with native LH1-RC; with Photosynthetic reaction center cytochrome c subunit
Assay: X-ray crystal structure of HiPIP:LH1-RC co-complex, […] Å
Assay type: binding
Settings: pH 5; 4Fe-4S cluster ligated by Cys; HiPIP purified in reduced state; bound to LH1-RC

T1 sequence (P80176 whole entry, other chains not shown): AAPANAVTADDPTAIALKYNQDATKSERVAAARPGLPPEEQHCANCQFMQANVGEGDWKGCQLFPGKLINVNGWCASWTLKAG

Structure (SMILES): [S]12[Fe]3[S]4[Fe]1[S]1[Fe]2[S]3[Fe]41 [4Fe-4S cluster]
- X-ray crystal structure of HiPIP:LH1-RC co-complex, 2.9 Å: Fe atoms in both hemes and the 4Fe-4S cluster were clearly resolved

— paper PMC7889895, “Crystal structure of a photosynthetic LH1-RC in complex with its electron donor HiPIP” (Nature Communications, 2021)
